Values quoted from earlier work as cited in patent US8697911B2, “Rho kinase inhibitors” (Boehringer Ingelheim International GmbH, priority 2010, dated 2014).
Where two headings read alike, the source gives them in different places.

Columns and labels:
rat stroke model = settings: in vivo; cited from earlier work
[1] = system: IL-1 beta-induced coronary stenosis; settings: long term treatment; cited from earlier work
Dahl salt-sensitive rats = settings: rat, in vivo; cited from earlier work
[2] = system: neointimal formation in rats; settings: cited from earlier work
[3] = system: spontaneously hypertensive rat, renal hypertensive rat and deoxycortisone acetate salt hypertensive rat models; settings: cited from earlier work

Row | SMILES | infarct size and neurologic deficit (rat stroke model) | coronary constrictive remodeling [1] | coronary stenosis [1] | ventricular hypertrophy and function (Dahl salt-sensitive rats) | neointimal formation [2] | effect on blood pressure ([3]; control rats) | effect on blood pressure ([3]; three rat models of hypertension)
1 | O=S(=O)(c1cccc2cnccc12)N1CCCNCC1 [fasudil] | reduce both the infarct size and neurologic deficit | promote a regression of coronary constrictive remodeling | progressively reduce coronary stenosis | – | – | – | –
2 | C[C@@H](N)[C@H]1CC[C@H](C(=O)Nc2ccncc2)CC1 [Y-27632] | – | – | – | improve ventricular hypertrophy and function | inhibited neointimal formation | only a minor effect on blood pressure | significantly decrease blood pressure
